{"source": "patent US20080138440A1", "about": "“Methods of diagnosing and alleviating gadolinium toxicity” (priority 2006, published 2008)", "origin": "cited, not measured here", "conditions": "high doses; cited from earlier work"}
{"smiles": "CNC[C@H](O)[C@@H](O)[C@H](O)[C@H](O)CO.CNC[C@H](O)[C@@H](O)[C@H](O)[C@H](O)CO.O=C([O-])CN(CCN(CC(=O)[O-])CC(=O)O)CCN(CC(=O)[O-])CC(=O)O.[Gd+3]", "note": "[gadopentetate dimeglumine injection, gadopentetate dimeglumine]", "values": [{"measurement": "arrhythmias", "result": "Arrhythmias have been noted"}]}
